One assay has as its system C. albicans CA-6 strain. Put plainly: murine model of systemic candidiasis. The class given is in vivo, Balb/c mice.
The next assay concerns S. aureus 29213 strain. Put plainly: CFU assay against S. aureus. The class given is cell-based, Staphylococcus aureus. On the procedure: In vitro activity of N10K against S. aureus 29213 strain. The microbicidal activity of N10K peptide against S. aureus has been evaluated by a conventional CFU assay. Cells of S. aureus 29213 have been incubated at 37° C. for 5 hours in the presence of N10K at the concentration of 50, 45 or 40 micrograms/ml, or in distilled water as control growth. After the incubation period, the cell suspensions have been plated on Mueller Hinton agar, then incubated at 37° C. and observed for CFU enumeration after 24 hours.
In vitro activity of T11F against S. aureus 29213 strain. The bactericidal activity of T11F peptide against S. aureus has been evaluated by a conventional CFU assay. Cells of S. aureus 29213 have been incubated at 37° C. for 5 hours in the presence of T11F at the concentration of 50, 40 or 30 micrograms/ml, or in distilled water as control growth. After the incubation period, the cell suspensions have been plated on Mueller Hinton agar, then incubated at 37° C. and observed for CFU enumeration after 24 hours.
In vitro activity of H4L against S. aureus 29213 strain. The bactericidal activity of H4L peptide against S. aureus has been evaluated by a conventional CFU) assay. […]
In vitro activity of MoA VHCDR3 against S. aureus 29213 strain. The microbicidal activity of MoA VHCDR3 peptide against S. aureus has been evaluated by a conventional CFU assay. […]

For the next assay, the system named is A. fumigatus 1163 strain. Nature of the assay: CFU assay against A. fumigatus conidia. The class given is cell-based, Aspergillus fumigatus.
Assay [1] has as its system K. pneumoniae ATCC 700603 strain. Nature of the assay: CFU assay against K. pneumoniae. Type of assay: cell-based, Klebsiella pneumoniae.
Assay [2] relates to peritoneal murine macrophages (PM). Put plainly: in vitro immunomodulatory activity on murine peritoneal macrophages (PM). The class given is cell-based, mouse. The method, then: In vitro immunomodulatory activity of MoA VHCDR3 on murine immune cells. FIGS. 47-51 are graphs showing TNF-α and IL-6 production by PM and PMN stimulated with MoA CDRs and mouse MoA VHCDR3 uptake by different cell populations. Cells were cultured in the presence or absence (NS) of human and/or mouse CDRs, lipopolisaccharide (LPS), or negative control peptide (NC) (all 10 micrograms/ml) for 18 hr. Both PM and PMN cell populations were 5×10^6/ml. After incubation, TNF-α and IL-6 levels were evaluated in culture supernatants by specific ELISA assays (* P<0.05 treated vs untreated cells, n=7). In FIG. 51, dendritic cells (DC), PM, PMN, and T cells (all 1×10^6/ml) were incubated for 1 hr in the presence or absence (NS) of biotinylated (b)-MoA VHCDR3 or b-NC (both 10 micrograms/ml). After incubation, permeabilized cells were reacted with FITC-labelled mAb to biotin (b) and analyzed by FACScan flow cytometry. Data are reported as the percentage of positive cells *, P<0.05 (b-VHCDR3 treated vs untreated cells, n=5). Error bars, s.e.m. FIGS. 52A and B show graphs and colored cell staining micrograph of kinetic of VHCDR3 uptake by PM. PM (1×10^6/ml) were incubated for different times with b-VHCDR3 or b-NC (all 10 micrograms/ml). After incubation, permeabilized cells were reacted with FITC-labelled mAb to biotin and analyzed by FACScan flow cytometry. Data are reported as the mean fluorescence intensity (MFI) and percentage of positive cells (FIG. 52A) (* P<0.05 b-VHCDR3-treated vs untreated cells, n=7). Error bars, s.e.m. In selected experiments, cells were incubated for 1 hr as above described, reacted with FITC-labelled mAb to biotin in the presence of Evans' Blue as a counter stain, and subsequently examined under fluorescent light microscopy (FIG. 52B). Note the green fluorescence of b-VHCDR3 treated cells. Original magnification 20×. In FIGS. 53 and 54 is shown the phospho-Akt activation and TNF-α production in PM stimulated with MoA VHCDR3. PM (3×10^6/ml) were stimulated for 1 hr in the presence or absence (NS) of MoA VHCDR3, LPS, an irrelevant control peptide (NC) or a scrambled peptide (SP) (all 10 micrograms/ml). After incubation, cell lysates were subjected to Western blotting. Membranes were incubated with Abs to pAkt and Akt; pAkt was normalized against Akt (FIG. 53)*, P<0.05 (treated vs untreated cells, n=5). […] PM (5×10^6/ml) were stimulated for 18 hr as above described. After incubation, TNF-α level was evaluated in culture supernatants by specific ELISA assays. (FIG. 54)*, P<0.05 (treated vs untreated cells, n=5). In FIGS. 55 and 56 is shown the phospho-IkBα activation and TNF-α gene expression in PM stimulated with MoA VHCDR3. PM (3×10^6/ml) were stimulated for 1 hr in the presence or absence (NS) of wortmannin (4 nM), MoA VHCDR3, LPS or NC (all 10 micrograms/ml). After incubation, cell lysates were subjected to Western blotting. Membranes were incubated with Abs to pIkBα and IkBα; pIkBα was normalized against IkBα. (FIG. 55)*, P<0.05 (treated versus untreated cells, n=5); †, P<0.05 (wortmannin-treated vs wortmannin-untreated cells, n=5). For testing the expression level of TNF-α gene, PM (1×10^6/ml) were cultured for 1, 6 and 18 hr as above described. After incubation, total RNA was isolated and analyzed for mRNA expression with RT-PCR (FIG. 56). Transcript copy numbers were determined by qPCR using cDNA as a template. Copy numbers were normalized against the copy number of the GADPH gene (B). […]

The next assay relates to C. albicans cells. Nature of the assay: direct candidacidal activity in vitro (strain not stated). Type of assay: cell-based, Candida albicans.
For assay [3], the system named is P. aeruginosa ATCC 25853 strain. Nature of the assay: CFU assay against P. aeruginosa. Type of assay: cell-based, Pseudomonas aeruginosa.
The test system of assay [4] is E. coli ATCC 25922 strain. Put plainly: CFU assay against E. coli. Type of assay: cell-based, Escherichia coli.
The next assay relates to M. furfur 101 strain. Nature of the assay: CFU assay against M. furfur. The class given is cell-based, Malassezia furfur.
The subject of assay [5] is C. albicans SC5314 strain. The method, then: In vitro activity of N10K against C. albicans SC5314 strain. The candidacidal activity of N10K peptide against C. albicans was assessed by a conventional colony forming unit (CFU) assay as previously described (Polonelli et al., 2003; Manfredi et al., 2005). Briefly, cells of C. albicans SC5314 were incubated at 37° C. for 6 hours (hr) in the presence of N10K at the concentration indicated of 20, 12.5 or 6.25 microgram/ml, or in distilled water as control (C). After incubation, cell suspensions were plated on Sabouraud dextrose agar and incubated at 30° C. for 48 hours when CFU were counted (** P<0.01 for N10K treated versus untreated cells, by t test). […]
The alanine-substituted derivatives (asd), defined according to the position held by the alanine-substituted aminoacid, were tested against C. albicans by a conventional colony forming unit (CFU) as previously described (Polonelli et al., 2003). Briefly, cells of C. albicans SC5314 were incubated at 37° C. for 6 hours in the presence of N10K or N10K asd at different scalar concentrations or distilled water as control. After incubation, cell suspensions were plated on Sabouraud dextrose agar and incubated at 30° C. for 48 hours when CFU were counted. Based on several independent replications, the EC50 value of each peptide was calculated by nonlinear regression analysis using Graph Pad Prism 4.01 software, San Diego, Calif., USA. […]
In vitro microbicidal activity of N10K derivative with 2 amino acid substitutions, or 80% sequence identity with native N10K, namely peptide Seq Id. No. 25 was tested against Candida albicans SC5314 as determined by Colony Forming Unit assay.

In a further assay the test system is Human monocytes. Put plainly: in vitro immunomodulatory activity on human monocytes. Conditions: 10 micrograms/ml, 18 hr, ELISA. Type of assay: cell-based. For orientation: In an ELISA, binding on a coated surface is turned into a signal by an enzyme label.
The mark [6] stands for this setting: peptide 100 micrograms/ml, 5 hours 37° C.

Where no end group is shown, it is not given here.

As usually defined, the EC50 is the concentration that produces a half-maximal response.

Experimental for A. fumigatus 1163 strain: After the incubation period, the conidial suspensions have been plated on Sabouraud dextrose agar, then incubated at 30° C. and observed for CFU enumeration after 48 hours.
After the incubation period, the cell suspensions have been plated on Sabouraud dextrose agar, then incubated at 30° C. and observed for CFU enumeration after 48 hours.
Experimental for C. albicans CA-6 strain: CFU recovery from the kidneys of mice was determined 7 and 12 days after fungal infection.
Mice were infected intravenously with the opportunistic fungus C. albicans and treated with mouse VHCDR3 or VLCDR3 (used as a negative control) intraperitoneally 4 hr before (200 micrograms), and 1 (100 micrograms) and 2 (100 micrograms) days after infection. Animal survival and fungal burden in kidneys were evaluated in different groups of mice. […] Error bars, s.e.m.
Experimental for Human monocytes: Human monocytes or PMN (both 10×10^6/ml) were incubated in RPMI 1640 plus 10% FCS for 18 hr or 6 hr respectively in the presence or in the absence (NS) of LPS, negative control (NC) and peptides (all 10 micrograms/ml). After incubation culture supernatants were collected and tested for cytokines production by specific ELISA. […] Monocytes were incubated for 30 minutes in presence or absence (NS) of NC or N10K (both 10 micrograms/ml) or Cytochalasin D (30 μM). After incubation cells have been stimulated for 30 minutes with non opsonized h.i. […] The percentage of phagocytosis (FIG. 18A) and the medium number of yeast particles adhered or ingested by each monocyte (phagocytic index) (FIG. 18B) have been determined by cytofluorimetric analysis. […] PBMC have been incubated 30 minutes in presence or absence (NS) of NC or N10K (both 10 micrograms/ml). After incubation PBMC have been stimulated for 18 h with LPS (10 micrograms/ml) or h.i. […] The levels of IL-12p40 and IL-6 have been evaluated in the supernatants by ELISA Kit.
After incubation culture supernatants were collected and tested for cytokines production by specific ELISA. […]
Experimental for M. furfur 101 strain: After the incubation period, the cell suspensions were plated on Sabouraud dextrose agar added with Tween 20 (1%), then incubated at 30° C. and observed for CFU enumeration after 72 hours.
After the incubation period, the cell suspensions have been plated on Sabouraud dextrose agar added with Tween 20 (1%), then incubated at 30° C. and observed for CFU enumeration after 72 hours.

Regarding “G Q Y G N L W F A Y (GQYGNLWFAY) [MoA VHCDR3, CDR3 fragment of the H chain of a murine IgM mAb directed to difucosyl human blood group A substance]”, the Activity result is “Indirectly” in the assay with C. albicans CA-6 strain (Table III, in vivo, Fungus, for MoAVHCDR3 the wrapped cell reads Indirectly cidal up regulation of TNF-α, TLR-4); “cidal” in the assay on S. aureus 29213 strain (Table III, in vitro); “cidal” in the assay on A. fumigatus 1163 strain (Table III, in vitro); “cidal” in assay [1] (Table III, in vitro); “cidal” in assay [3] (Table III, in vitro); “cidal” in assay [4] (Table III, in vitro). Besides, the Activity entry with M. furfur 101 strain (Table III, in vitro) is “cidal”. In the assay with C. albicans CA-6 strain (intraperitoneally 200 micrograms 4 hr before, 100 micrograms 1 and 2 days after infection, 5, 7 and 12 days after infection, versus negative control mice), the “CFU recovery from kidneys” value is recorded as “impressive decrease”. Also, the “survival of infected mice” value in the assay with C. albicans CA-6 strain (intraperitoneally 200 micrograms 4 hr before, 100 micrograms 1 and 2 days after infection, versus untreated or MoA VLCDR3 treated) is “significant increase in survival”. For the same sequence, the “bactericidal activity (CFU)” value (in the assay with S. aureus 29213 strain (setting [6]); in assay [1] (setting [6]); in assay [3] (setting [6]); in [4] (setting [6])) was “showed bactericidal activity” throughout. Also, the “fungicidal activity (CFU)” value is listed as “showed fungicidal activity” in the assay on A. fumigatus 1163 strain (peptide 100 micrograms/ml, 18 hours 30° C.) and “showed fungicidal activity” in the assay on M. furfur 101 strain (peptide 100 micrograms/ml, 6 hours 30° C.). In addition, the TLR-4 expression result in assay [2] (10 micrograms/ml) is listed as “up-regulates TLR-4”. In addition, the “Akt activation (phospho-Akt)” value in assay [2] (10 micrograms/ml, 1 hr, Western blotting) is given as “induces Akt activation”. For the same sequence, the “TNF-α production by PM” value in [2] (10 micrograms/ml, ELISA) is “stimulate PM to produce TNF-α”. The “TNF-α mRNA” value in assay [2] (1 hr post stimulation, 10 micrograms/ml) is on record as “detected”. Also, in [2] (Table III, in vitro, Immune cells), the “Activity (Stimulation of TNF-α, IL-6)” value is reported as “Stimulation”. Further, the “activity against C. albicans cells in vitro” value with C. albicans cells is “ineffective”.

Take “NAVSLTCLVK [asd Q2A N10K, N A V S L T C L V K]”: the EC50 in assay [5] (SC5314, 6 h) came out at 2300 nM. In assay [5] (Table IX), this sequence yielded an EC50asd/EC50N10K of 2.30. Moreover, the “IL-6 production by human monocytes” value with Human monocytes is recorded as “strong enhancement”.

The values above are taken from US20120121574A1, “ANTIMICROBIAL, ANTIVIRAL, ANTICANCER AND IMMUNOMODULATORY PEPTIDES AND USES THEREFORE” (priority 2010, published 2012).
